ChEMBL document CHEMBL4270640, “Discovery of new 2, 5-disubstituted 1,3-selenazoles as selective human carbonic anhydrase IX inhibitors with potent anti-tumor activity” (Eur J Med Chem, 2018)
Active and inactive are the calls of the source. No cut-off for these calls is given here.

How the values were obtained:
Carbonic anhydrase 9 = Carbonic anhydrase 9 (Homo sapiens, UniProt Q16790); assay: Inhibition of recombinant human carbonic anhydrase 9 incubated for 15 mins prior to testing by stopped flow CO2 hydration assay
PC-3 [1] = assay: Antiproliferative activity against human PC3 cells assessed as cell viability at 1 uM after 48 hrs under normoxic condition by MTT assay relative to control; format: functional; details: for viability at 1 µM: PC-3, 48 h, read-out: Activity
PC-3 [2] = assay: Antiproliferative activity against human PC3 cells assessed as cell viability at 10 uM after 48 hrs under normoxic condition by MTT assay relative to control; format: functional
PC-3 [3] = assay: Antiproliferative activity against human PC3 cells at 10 uM after 48 hrs under hypoxic condition by MTT assay relative to control; format: functional
PC-3 [4] = assay: Antiproliferative activity against human PC3 cells assessed as cell viability at 30 uM after 48 hrs under normoxic condition by MTT assay relative to control; format: functional; details: PC-3, 48 h, read-out: Activity
PC-3 [5] = assay: Antiproliferative activity against human PC3 cells assessed as cell viability at 100 uM after 48 hrs under normoxic condition by MTT assay relative to control; format: functional; details: PC-3, 48 h, read-out: Activity
MDA-MB-231 [6] = assay: Antiproliferative activity against human MDA-MB-231 cells assessed as cell viability at 1 uM after 48 hrs under normoxic condition by MTT assay relative to control; format: functional; details: for viability at 1 µM: MDA-MB-231, 48 h, read-out: Activity
MDA-MB-231 [7] = assay: Antiproliferative activity against human MDA-MB-231 cells assessed as cell killing at 10 uM after 48 hrs under normoxic condition by MTT assay relative to control; format: functional
MDA-MB-231 [8] = assay: Antiproliferative activity against human MDA-MB-231 cells assessed as cell killing at 30 to 100 uM after 48 hrs under normoxic condition by MTT assay; format: functional, cell-based
MDA-MB-231 [9] = assay: Antiproliferative activity against human MDA-MB-231 cells assessed as cell viability at 100 uM after 48 hrs under hypoxic condition by MTT assay relative to control; format: functional; details: MDA-MB-231, 48 h, read-out: Activity
PC-3 [10] = assay: Antiproliferative activity against human PC3 cells assessed as cell viability at 1 uM after 48 hrs under hypoxic condition by MTT assay relative to control; format: functional; details: PC-3, 48 h, read-out: Activity

Row | SMILES | Ki (Carbonic anhydrase 9) | further results
1 | NC(=[Se])c1ccc(S(N)(=O)=O)cc1 | 7.6 nM | –
2 | COc1cccc(-c2cnc(-c3ccc(S(N)(=O)=O)cc3)[se]2)c1 | 56.3 nM | –
3 | COc1ccc([Se]Cc2cnc(-c3ccc(S(N)(=O)=O)cc3)[se]2)cc1 | 0.55 nM | Activity (PC-3 [1]): inactive; Activity (PC-3 [2]): inactive; Activity (PC-3 [3]): 77%; viability at 30 µM (PC-3 [4]): 59%; viability at 100 µM (PC-3 [5]): 11%; Activity (MDA-MB-231 [6]): inactive; Activity (MDA-MB-231 [7]): inactive; Activity (MDA-MB-231 [8]): Active; viability at 100 µM (MDA-MB-231 [9]): 46%
4 | N=C(N)SCc1cnc(-c2ccc(S(N)(=O)=O)cc2)[se]1 | 7 nM | –
5 | NS(=O)(=O)c1ccc(-c2ncc(CCl)[se]2)cc1 | 2.8 nM | –
6 | Cc1cnc(-c2ccc(S(N)(=O)=O)cc2)[se]1 | 6.9 nM | –
7 | NS(=O)(=O)c1ccc(-c2ncc(-c3ccc(Cl)cc3)[se]2)cc1 | 8.4 nM | –
8 | NS(=O)(=O)c1ccc(-c2ncc(-c3ccc(Br)cc3)[se]2)cc1 | 0.87 nM | –
9 | NS(=O)(=O)c1ccc(-c2ncc(C(=O)O)[se]2)cc1 | 9 nM | –
10 | NS(=O)(=O)c1ccc(-c2ncc(-c3ccc([N+](=O)[O-])cc3)[se]2)cc1 | 8.2 nM | viability at 1 µM (PC-3 [1]): 60%; viability at 10 µM (PC-3 [2]; PC-3, 48 h, read-out: Activity): 10%; viability at 1 µM (PC-3 [10]): 32%; viability at 1 µM (MDA-MB-231 [6]): 73%; Activity (MDA-MB-231 [7]): >90%
11 | NS(=O)(=O)c1ccc(-c2ncc(C[Te]c3ccccc3)[se]2)cc1 | 7.2 nM | –
12 | COc1ccc([Te]Cc2cnc(-c3ccc(S(N)(=O)=O)cc3)[se]2)cc1 | 0.89 nM | viability at 1 µM (PC-3 [1]): 23%; viability at 1 µM (MDA-MB-231 [6]): 16%
13 | NS(=O)(=O)c1ccc(-c2ncc(-c3ccc(F)cc3)[se]2)cc1 | 7.5 nM | –
14 | NS(=O)(=O)c1ccc(-c2ncc(-c3ccccc3)[se]2)cc1 | 6.5 nM | –
15 | NS(=O)(=O)c1ccc(-c2ncc(C[Se]c3ccccc3)[se]2)cc1 | 9.1 nM | –
16 | Cc1ccc([Te]Cc2cnc(-c3ccc(S(N)(=O)=O)cc3)[se]2)cc1 | 2.6 nM | –
17 | Cc1ccc([Se]Cc2cnc(-c3ccc(S(N)(=O)=O)cc3)[se]2)cc1 | 7.1 nM | –
18 | NS(=O)(=O)c1ccc(-c2ncc(CSc3ccccc3)[se]2)cc1 | 5.4 nM | –
